Measured values taken from US11970497B2, “Tricyclic AKR1C3 dependent KARS inhibitors” (Novartis AG, priority 2019, dated 2024).

Key:
Assay in all cases: Expanded lung cancer cell line proliferation assay
Format in all cases: cell-based
A427 = details: Homo sapiens, A-427; A427, 72 h, average of PrestoBlue and Cell Titer Glo; AKR1C3 0.2 TPM; read-out: Absolute Qualified AC50
Summary of the method: (§1)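 72 h growth assay, RPMI-1640/10% FBS, 37 °C/5% CO2; 8-pt dose, 1 μM top; PrestoBlue + CTG multiplex; AC50 = mean of both read-outs.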

BEN = details: 72 h, average of PrestoBlue and Cell Titer Glo, AKR1C3 2573.5 TPM, read-out: Absolute Qualified AC50
Summary of the method: as §1

COLO-699 = details: COLO-699, 72 h, average of PrestoBlue and Cell Titer Glo; AKR1C3 expression: no data available; read-out: Absolute Qualified AC50
Summary of the method: as §1

HCC-44 = details: Homo sapiens, HCC44; HCC-44, 72 h, average of PrestoBlue and Cell Titer Glo; AKR1C3 134.3 TPM; read-out: Absolute Qualified AC50
Summary of the method: as §1

NCI-H1339 = details: NCI-H1339, 72 h, average of PrestoBlue and Cell Titer Glo; AKR1C3 5.2 TPM; read-out: Absolute Qualified AC50
Summary of the method: as §1

NCI-H1437 = details: Homo sapiens; NCI-H1437, 72 h, average of PrestoBlue and Cell Titer Glo; AKR1C3 2720.8 TPM; read-out: Absolute Qualified AC50
Summary of the method: as §1

NCI-H1650 = details: Homo sapiens; NCI-H1650, 72 h, average of PrestoBlue and Cell Titer Glo; AKR1C3 1.3 TPM; read-out: Absolute Qualified AC50
Summary of the method: as §1

NCI-H1838 = details: Homo sapiens; NCI-H1838, 72 h, average of PrestoBlue and Cell Titer Glo; AKR1C3 1.8 TPM; read-out: Absolute Qualified AC50
Summary of the method: as §1

NCI-H1944 = details: Homo sapiens; NCI-H1944, 72 h, average of PrestoBlue and Cell Titer Glo; AKR1C3 3164.3 TPM; read-out: Absolute Qualified AC50
Summary of the method: as §1

NCI-H2347 = details: Homo sapiens; NCI-H2347, 72 h, average of PrestoBlue and Cell Titer Glo; AKR1C3 8.9 TPM; read-out: Absolute Qualified AC50
Summary of the method: as §1

NCI-H358 = details: Homo sapiens; NCI-H358, 72 h, average of PrestoBlue and Cell Titer Glo; AKR1C3 5.6 TPM; read-out: Absolute Qualified AC50
Summary of the method: as §1

NCI-H661 = details: Homo sapiens; NCI-H661, 72 h, average of PrestoBlue and Cell Titer Glo; AKR1C3 3 TPM; read-out: Absolute Qualified AC50
Summary of the method: as §1

NCI-H838 = details: Homo sapiens; NCI-H838, 72 h, average of PrestoBlue and Cell Titer Glo; AKR1C3 233 TPM; read-out: Absolute Qualified AC50
Summary of the method: as §1

PC-14 = details: Homo sapiens; PC-14, 72 h, average of PrestoBlue and Cell Titer Glo; AKR1C3 1466.3 TPM; read-out: Absolute Qualified AC50
Summary of the method: as §1

Structure (SMILES)	AC50 (A427)	AC50 (BEN)	AC50 (COLO-699)	AC50 (HCC-44)	AC50 (NCI-H1339)	AC50 (NCI-H1437)	AC50 (NCI-H1650)	AC50 (NCI-H1838)	AC50 (NCI-H1944)	AC50 (NCI-H2347)	AC50 (NCI-H358)	AC50 (NCI-H661)	AC50 (NCI-H838)	AC50 (PC-14)
CN1c2ccc(F)cc2C(=O)CC12CCN(C(=O)NCc1ccc(F)c(NCCO)c1)CC2 [Example 36, 6′-fluoro-N-(4-fluoro-3-((2-hydroxyethyl)amino)benzyl)-1′-methyl-4′-oxo-3′,4′-dihydro-1′H-spiro[piperidine-4,2′-quinoline]-1-carboxamide]	> 1000 nM	399 nM	> 1000 nM	705 nM	> 1000 nM	257 nM	> 1000 nM	> 1000 nM	275 nM	> 1000 nM	> 1000 nM	> 1000 nM	> 1000 nM	308 nM
O=C1CC2(CCN(C(=O)NCc3ccc(F)cc3)CC2)Nc2ccc(F)cc21 [Example 40]	> 1000 nM	57 nM	> 1000 nM	440 nM	> 1000 nM	68 nM	> 1000 nM	> 1000 nM	52 nM	> 1000 nM	> 1000 nM	> 1000 nM	641 nM	92 nM
